{
  "source": "paper PMC9839507",
  "about": "(ACS applied materials & interfaces, 2022)",
  "test_system": "orthotopic U87MG-luc glioma",
  "type": "in vivo, BALB/c nude mice",
  "data": [
    {"compound": "CC1(C)C(/C=C/C=C/C=C/C=C2\\N(CCCCS(=O)(=O)O)c3ccc4ccccc4c3C2(C)C)=[N+](CCCCS(=O)(=O)[O-])c2ccc3ccccc3c21", "note": "[ICG, indocyanine green, reference compound]", "values": [
      {"measurement": "detection in orthotopic glioma by fluorescent imaging", "setting": "2 h after i.v. injection, 30 nmol, n = 3", "value": "detected"},
      {"measurement": "ICG signal at the tumor site by tissue fluorescence imaging", "setting": "Figure S9", "value": "slightly detectable"},
      {"measurement": "ex vivo fluorescent signals in tumors", "setting": "brains harvested at 72 h postinjection", "value": "undetectable"}
    ]}
  ]
}
